Reference: ChEMBL document CHEMBL5303708, “ECBD screening data for assay EOS300033” (2021)
Residues, ends and D or L forms follow the SMILES beside them. *: point of attachment. Cbz = O=C(OCc1ccccc1)*

Test system: SARS-CoV-2
Design: species or system Chlorocebus sabaeus, Vero C1008
Conditions: assay_design cell number determination; assay_format cell based format; assay_stage confirmatory assay; assaysupport stable transfection; bao_tags Fluorescence imaging cell growth inhibition assay; bioassay Fluorescence imaging cell growth inhibition assay; bioassay_setting in vitro; bioassay_type functional; detectioninstrument ArrayScan XTI HCS Reader; detectionmethod fluorescence microscopy

| SMILES | IC50 relative [µM] |
| --- | --- |
| Nc1nc(O)c2[nH]nnc2n1 [8-AZAGUANINE] | 3.8962 |
| COc1cc2ncnc(Nc3cccc(Br)c3)c2cc1OC | 13.3328 |
| CC(C)(C)c1cc(C=C(C#N)C#N)cc(Br)c1O | 7.2055 |
| O=C(O)c1ccc(N2C(=O)/C(=C\c3ccc(-c4ccc([N+](=O)[O-])cc4)o3)C=C2c2ccccc2)cc1 | 651.6971 |
| Nc1ncc(-c2ccnc(Nc3ccncc3)n2)c(CC2CC2)n1 | 12.577 |
| N#Cc1cccc(C#N)c1-c1nc2c3ccc(Cl)cc3c3ccccc3c2[nH]1 | 15.4145 |
| CCCCOCCOc1ccc(-c2ccc3c(c2)/C=C(/C(=O)Nc2ccc([S@@+]([O-])Cc4cncn4CCC)cc2)CCCN3CC(C)C)cc1 [CENICRIVIROC] | 52.7809 |
| O=C(C1CC1)N1CC[C@@H](Cc2n[nH]c(=O)n2-c2ccc(-c3ccc4occc4c3)cc2)C1 | 32.5565 |
| COc1ccc2c(c1)[C@]1(C[C@H]1c1ccc3c(/C=C/c4ccc(CN5C[C@@H](C)O[C@@H](C)C5)cc4)n[nH]c3c1)C(=O)N2 [OCIFISERTIB] | 14.7188 |
| Cl.O=C(O)Cc1cccc(OCCCN(Cc2cccc(C(F)(F)F)c2Cl)CC(c2ccccc2)c2ccccc2)c1 | 16.3401 |
| CS(=O)(=O)O.Cc1c(C(=O)c2cccc3ccccc23)c2cccc3c2n1[C@H](CN1CCOCC1)CO3 | 11.9328 |
| CNC(=O)c1cc(Oc2ccc(NC(=O)Nc3ccc(Cl)c(C(F)(F)F)c3)c(F)c2)ccn1 [REGORAFENIB] | 16.4573 |
| Cc1ccc(Oc2nc3cc(-c4ccc(-c5ccccc5)cc4)c(Cl)cc3[nH]2)cc1C(=O)O | 351.9839 |
| CC(C)C[C@@H](C=O)NC(=O)[C@H](CC(C)C)NC(=O)[C@H](CC(C)C)NC(=O)OCc1ccccc1 [MG-132] (Cbz-Leu-Leu-Leu-aldehyde) | 4.4656 |
| CC1=NN(c2ccc(C)c(C)c2)C(=O)/C1=N\Nc1cccc(-c2cccc(C(=O)O)c2)c1O [ELTROMBOPAG] | 56.9757 |
| Cn1c(Nc2ccc(C(F)(F)F)cc2)nc2cc(Oc3ccnc(-c4ncc(C(F)(F)F)[nH]4)c3)ccc21 [RAF-265] | 10.7684 |
| Nc1nc(S)c2ncn(C3OC(CO)C(O)C3O)c2n1 (stereo not drawn) | 16.2319 |
| Nc1ncnc2c1ncn2[C@@H]1CC[C@@H](O)[C@H]1O | 3.6981 |
| COc1ccc(-c2c[nH]c3nccc(-c4ccsc4)c23)c(OC)c1 | 28.2582 |
| CCCCn1c(NC(=O)c2cccs2)c(C#N)c2nc3ccccc3nc21 | 13.3332 |
| CCc1c(-c2ccc3[nH]ncc3c2)cnc(N)c1-c1ccc(O)cc1 | 51.0608 |
| C[C@@H]1C[C@@H]([C@H](O)CC2CC(=O)NC(=O)C2)C(=O)[C@@H](C)C1 [CYCLOHEXIMIDE] | 2.4209 |
| CC(C)(O)CNc1ncc(-c2ccnc(Nc3ccnc(Cl)c3)n2)c(CC2CC2)n1 | 793.9225 |
| CS(=O)(=O)O.Cc1c(O)cccc1C(=O)NC(CSc1ccccc1)C(O)CN1CC2CCCCC2CC1C(=O)NC(C)(C)C (stereo not drawn) | 15.1399 |

| SMILES | IC50 relative [µM] |
| --- | --- |
| CCN(CC)c1ccc2cc(-c3nc4ccccc4[nH]3)c(=O)oc2c1 | 0.3531 |
| O=C(Nc1ccc(Cl)c(Cl)c1)Nc1ccc(Cl)c(Cl)c1 | 5.12 |
| C[C@@H]1COCCN1c1cc(=O)n2c(n1)N(Cc1cncc(Cl)c1)[C@H](C(F)(F)F)CC2 | 19.8832 |
| O=c1cc(N2CCOCC2)oc2c(-c3cccc4c3sc3ccccc34)cccc12 | 145.964 |
| CC(C)(C)c1cc(C=C(C#N)C#N)cc(C(C)(C)C)c1O [TYRPHOSTIN A9] | 0.8215 |
| CC(C)(C)c1ccccc1Oc1ncccc1NC(=O)Nc1ccc(OC(F)(F)F)cc1 | 9.5826 |
| Nc1nc(N)c2nc(CNc3ccc(C(=O)N[C@@H](CCC(=O)O)C(=O)O)cc3)cnc2n1 [AMINOPTERIN] | 0.3554 |
| Oc1c(Cl)cc(Cl)cc1Sc1cc(Cl)cc(Cl)c1O [BITHIONOL] | 17.6664 |
| C#CCC(Cc1cnc2nc(N)nc(N)c2n1)c1ccc(C(=O)N[C@@H](CCC(=O)O)C(=O)O)cc1 (stereo partly drawn) [PRALATREXATE] | 0.0052 |
| COc1ccccc1[C@H](Cn1c(=O)n(C(C)(C)C(=O)O)c(=O)c2c(C)c(-c3ncco3)sc21)OC1CCOCC1 [FIRSOCOSTAT] | 0.1223 |
| O=C(Nc1ccc(Cl)cc1)Nc1ccc(Cl)c(Cl)c1 [TRICLOCARBAN] | 8.2868 |
| Cl.O=C(c1c2ccccc2cc2ccccc12)N1CCC(N2CCC[C@@H](C(=O)N3CCOCC3)C2)CC1 | 4.1627 |
| CN(C)c1cccc(-c2c3c(=O)n(-c4ccccc4Cl)[nH]c3cc(=O)n2C)c1 [SETANAXIB] | 73.5962 |
| Cl.Cl.N[C@H]1CC[C@H](N[C@@H]2C[C@H]2c2ccccc2)CC1 | 65.2065 |
| CC(=O)[C@]1(O)Cc2c(O)c3c(c(O)c2[C@@H](O[C@H]2C[C@H](N)[C@H](O)[C@H](C)O2)C1)C(=O)c1ccccc1C3=O.Cl [IDARUBICIN HYDROCHLORIDE] | 28.5706 |
| COc1cc2c(NC3CCN(C4CCCCC4)CC3)nc(N3CCCN(C(C)C)CC3)nc2cc1OCCCN1CCCCC1 | 17.2224 |
| COc1cc(/C=C2\SC(=O)NC2=O)ccc1Oc1ccc(C#N)cc1C(F)(F)F | 49.4361 |
| CC[n+]1c(-c2ccccc2)c2cc(N)ccc2c2ccc(N)cc21.[Br-] [HOMIDIUM BROMIDE] | 96.2744 |
| COc1cc(NCc2ccc3nc(N)nc(N)c3c2C)cc(OC)c1OC [TRIMETREXATE] | 0.3486 |
| C/C(=C\c1ccc(C(=O)O)cc1)c1ccc2c(c1)C(C)(C)CCC2(C)C | 54.1303 |
| CN(Cc1cnc2nc(N)nc(N)c2n1)c1ccc(C(=O)N[C@@H](CCC(=O)O)C(=O)O)cc1 [METHOTREXATE] | 0.0551 |
| CC(C)(C)C(=O)/C(=C/c1cccc([N+](=O)[O-])c1)n1cncn1 | 4.9629 |
| Cc1cnc(Nc2ccc(F)cc2Cl)nc1-c1c[nH]c(C(=O)N[C@H](CO)c2cccc(Cl)c2)c1 | 9.1133 |
| CNCc1ccc(-c2cc(-c3nc(-c4ccc(S(=O)(=O)C(C)C)cc4)cnc3N)on2)cc1 [BERZOSERTIB] | 33.669 |
